According to ChEMBL document CHEMBL5356934, “Antibacterial activities of anthraquinones: structure-activity relationships and action mechanisms” (RSC Med Chem, 2023):
Converted amounts (≈) assume the structure as drawn.

Tested on: Mycobacterium tuberculosis variant bovis
Assay: Antimycobacterial activity against Mycobacterium bovis assessed as reduction in bacterial growth
Assay type: functional

Cc1cc(O)c2c(c1)C(=O)c1cccc(O)c1C2=O [CHRYSOPHANOL]
MIC: 64 µg/mL (≈ 252 µM)
